Measured values published in patent US5571822A, “Antitumor compounds” (The University of North Carolina at Chapel Hill, priority 1994, dated 1996).
“Also recorded” adds a separate entry of the source. Where two headings read alike, the source gives them in different places.

Legend:
tubulin [1] = assay: inhibition of tubulin polymerization (ITP); type: biochemical, bovine
Protocol: Electrophoretically homogeneous bovine brain tubulin was purified as described previously (Hamel, et al., 1984). […] Dihydrocombretastatin A-4 was prepared as described previously (Getahun et al., 1992).
The tubulin polymerization assay was performed as described previously (Li et al., 1994). In brief, tubulin at 1.2 mg/mL ([…]) was preincubated for 15 min at 26° C. in a 0.24 mL volume in 0.8M monosodium glutamate (pH 6.6 with NaOH in a 2M stock solution) with varying drug concentrations. The drug stock solutions were in dimethyl sulfoxide, and the final solvent concentration was 4% (v/v). […] All concentrations are in terms of the final reaction volume (0.25 mL). The reaction mixtures were chilled on ice, and […] of 10 mM GTP was added to each reaction mixture. Samples were transferred to cuvettes held at 0° C. by an electronic temperature controller in Gilford spectrophotometers. Baselines were established at 350 nm, and polymerization initiated by a temperature jump to 26° C. The jump took about 50 sec to complete. After 20 min, turbidity readings were recorded, and the temperature controller was set to 0° C. When depolymerization was complete, turbidity readings were again recorded. […] IC50 values were obtained graphically from inhibition of polymerization by different drug concentrations. Four spectrophotometers were used for each experimental sequence, with at least two control reactions (no drug) in each set.

tubulin [2] = assay: inhibition of radiolabeled colchicine binding to tubulin (ICB); parameters: species or system bovine; conditions: evaluated only when polymerization IC50 ≤ 1.0 μM; inhibitor equimolar with [3H]colchicine, 5-fold molar excess over tubulin
Protocol: Studies conducted in support of the present invention indicate that one mode of action of the 2-phenyl-4-quinolone compounds, as antitumor agents, is an ability to bind to tubulin and inhibit cell mitosis. […] […].
[…]. […] […].
Electrophoretically homogeneous bovine brain tubulin was purified as described previously (Hamel, et al., 1984). Combretastatin A-4 was a generous gift of Dr. G. R. Pettit, Arizona State University. Dihydrocombretastatin A-4 was prepared as described previously (Getahun et al., 1992). […]

K-562 = assay: NCI in vitro tumor cell screen, K-562 leukemia; type: cell-based; conditions: Homo sapiens, K562
Protocol: (§1) Selected 2-phenyl-4-quinolones were assayed using an in vitro, disease-oriented antitumor screen run by the National Cancer Institute (NCI) (e.g., Boyd 1989). The screen involved approximately 60 different cell lines and is a useful indicator of in vivo antitumor activity for a broad variety of tumor types (Grever et al., 1992; Monks et al., 1991). The cell lines tested included cells derived from the following solid tumor types: leukemia, non-small cell lung, colon, the central nervous system (CNS), melanoma, ovarian, renal, prostate, and breast cancers.

NCI-H226 = assay: NCI in vitro tumor cell screen, NCI-H226 non-small cell lung cancer; type: cell-based; conditions: Homo sapiens
Protocol: as §1

HCT116 = assay: NCI in vitro tumor cell screen, HCT116 colon cancer; type: cell-based; conditions: Homo sapiens, HCT-116
Protocol: as §1

KM202L = assay: NCI in vitro tumor cell screen, KM20L2 colon cancer; type: cell-based; conditions: Homo sapiens, KM-20L2
Protocol: as §1

SF-295 = assay: NCI in vitro tumor cell screen, SF-295 CNS tumor; type: cell-based; conditions: Homo sapiens, SF-295; read-out: logGI50 (converted)
Protocol: as §1
(§2) melonoma; SF268 and SF295, CNS tumor cell lines; DU145, prostate cancer

SK-Mel-5 = assay: NCI in vitro tumor cell screen, SK-Mel-5 melanoma; type: cell-based; conditions: Homo sapiens
Protocol: as §1, §2

OVCAR-3 = assay: NCI in vitro tumor cell screen, OVCAR-3 ovarian cancer; type: cell-based; conditions: Homo sapiens
Protocol: as §1

OVCAR-4 = assay: NCI in vitro tumor cell screen, OVCAR-4 ovarian cancer; type: cell-based; conditions: Homo sapiens
Protocol: as §1

RXF-393 = assay: NCI in vitro tumor cell screen, RXF-393 renal cancer; type: cell-based; conditions: Homo sapiens
Protocol: as §1

DU-145 = assay: NCI in vitro tumor cell screen, DU-145 prostate cancer; type: cell-based; conditions: Homo sapiens
Protocol: as §1, §2

MDA-N = assay: NCI in vitro tumor cell screen, MDA-N breast cancer; type: cell-based; conditions: Homo sapiens
Protocol: as §1

[3] = tested on: approximately 60 different cell lines; assay: NCI in vitro disease-oriented human tumor cell screen, all cell lines; type: cell-based; conditions: for GI50: Homo sapiens
Text: The cell lines tested included cells derived from the following solid tumor types: leukemia, non-small cell lung, colon, the central nervous system (CNS), melanoma, ovarian, renal, prostate, and breast cancers.

SF-268 = assay: NCI in vitro tumor cell screen, SF-268 CNS tumor; type: cell-based; conditions: Homo sapiens
Protocol: as §1, §2

protein-linked DNA = assay: breaks in protein-linked DNA; conditions: compared with VP-16
[4] = ± SD, tubulin 1.2 mg/mL, 26° C., 20 min, read-out: ITP IC50 (inhibition of tubulin polymerization)
[5] = calculated from all cell lines tested (Table II), read-out: average logGI50 (converted)
[6] = SF-268, CNS tumor, read-out: logGI50 (converted)
[7] = average over cell lines, read-out: average log GI50 (converted)

IC50 (tubulin [1]; [4])	ICB (% inhibition of colchicine binding) (tubulin [2])	Structure (SMILES)	GI50 (K-562)	GI50 (NCI-H226)	GI50 (HCT116)	GI50 (KM202L)	GI50 (SF-295)	GI50 (SK-Mel-5)	GI50 (OVCAR-3)	GI50 (OVCAR-4)	GI50 (RXF-393)	GI50 (DU-145)	GI50 (MDA-N)	GI50 [3, 5]	GI50 (SF-268; [6])	GI50 [3, 7]	breaks in protein-linked DNA (protein-linked DNA)	also measured
0.0005 ± 0.0001 mM	40 ± 5%	O=c1cc(-c2cccc(OC(F)(F)F)c2)[nH]c2cc3c(cc12)OCO3 [compound 17, 3'-Trifluoromethoxy-6,7-methylenedioxy-2-phenyl-4-quinolone]	36.3 nM	195 nM	14.1 nM	36.3 nM	25.7 nM	170 nM	63.1 nM	25.7 nM	40.7 nM	45.7 nM	< 10 nM	417 nM				
0.00047 ± 0.0001 mM	40 ± 2%	CCOc1cccc(-c2cc(=O)c3cc4c(cc3[nH]2)OCO4)c1 [compound 18, 3'-Ethoxy-6,7-methylenedioxy-2-phenyl-4-quinolone]	44.7 nM	324 nM	174 nM	182 nM	64.6 nM	191 nM	166 nM		275 nM	251 nM	17.8 nM	224 nM	269 nM	224 nM		
0.00045 ± 3e-05 mM	26 ± 5%	O=c1cc(-c2cccc(OCc3ccccc3)c2)[nH]c2cc3c(cc12)OCO3 [compound 19, 3'-Benzyloxy-6,7-methylenedioxy-2-phenyl-4-quinolone]	363 nM	229 nM	389 nM	224 nM	447 nM	282 nM	245 nM	> 100000 nM	407 nM	1100 nM	145 nM	676 nM	12900 nM			
0.0007 ± 0.0002 mM	16 ± 5%	COc1cccc(-c2cc(O)c3cc(Cl)ccc3n2)c1 [compound 24, 3'-Methoxy-6-chloro-2-phenyl-4-quinolone]															no detectable breaks in protein-linked DNA	
0.0023 ± 0.0007 mM		CC(=O)Nc1ccc2nc(-c3cccc(Cl)c3)cc(O)c2c1 [compound 26, 3'-Chloro-6-acetamido-2-phenyl-4-quinolone]								> 100000 nM				10500 nM			no detectable breaks in protein-linked DNA	
		COc1cccc(-c2cc(O)c3cc(N4CCCC4)ccc3n2)c1 [compound 28, 3'-Methoxy-6-pyrrolinyl-2-phenyl-4-quinolone]	< 1 nM	< 1 nM	< 1 nM	< 1 nM	< 1 nM	< 1 nM	< 1 nM	2000 nM	< 1 nM	< 1 nM	< 1 nM	1.86 nM	< 1 nM	≤ 1.86 nM		antitumor activity / cytotoxicity, in words [3]: most potent activity of all; also recorded: exceeded the sensitivity of the testing protocol for many of the cell lines tested

Structure (SMILES)	IC50 (tubulin [1]; [4])	ICB (% inhibition of colchicine binding) (tubulin [2])	GI50 (K-562)	GI50 (NCI-H226)	GI50 (HCT116)	GI50 (KM202L)	GI50 (SF-295)	GI50 (SK-Mel-5)	GI50 (OVCAR-3)	GI50 (OVCAR-4)	GI50 (RXF-393)	GI50 (DU-145)	GI50 (MDA-N)	GI50 [3, 5]	GI50 (SF-268; [6])	GI50 [3, 7]	breaks in protein-linked DNA (protein-linked DNA)	also measured
COc1cccc(-c2cc(O)c3cc(N(C)C)ccc3n2)c1 [compound 23, 3'-Methoxy-6-N,N-dimethylamino-2-phenyl-4-quinolone]	0.00038 ± 0.0001 mM	14 ± 8%	8.91 nM	44.7 nM		4.57 nM	15.5 nM	25.7 nM	15.1 nM	5500 nM	18.6 nM	34.7 nM	1.7 nM	30.2 nM	43.7 nM	31.6 nM		IC50 (tubulin [1]; values given in mM, read-out: IC50, inhibition of tubulin polymerization): 0.00038 mM; antitumor activity / cytotoxicity, in words [3]: in every case lower than those observed for compounds 10-22, 25-27, and 32; difference in average log GI50 versus compounds 10-22, 25-27, and 32 [3]: at least 0.9 log units
COc1cccc(-c2cc(O)c3cc(NC(C)=O)ccc3n2)c1 [compound 27, 3'-Methoxy-6-acetamido-2-phenyl-4-quinolone]	0.0021 ± 0.0005 mM													20000 nM			no detectable breaks in protein-linked DNA	GI50 (SF-268; SF-268, read-out: logGI50 (converted)): 5500 nM
